Experimental findings from ChEMBL document CHEMBL3244327, “Benzomorphans. Structure of a position isomer” (J Med Chem, 1978) are described below.

In data set [1] the test system is Mus musculus. In words: Analgesic activity in sc dosed mouse assessed as inhibition of acetylcholine bromide-induced writhing after 2 mins. It is filed as functional.
The subject of data set [2] is Rattus norvegicus. The experiment in a line: Narcotic antagonist activity in sc dosed rat assessed as dose required for 50% antagonist activity co-treated with meperidine. The format is functional.
Data set [3] has as its system Rattus norvegicus. The experiment in a line: Toxicity in rat at 80 mg/kg, sc. It is filed as organism-based. Set-up: dose 80 mg/kg, route subcutaneous. The note with it: in vivo.
The test system of data set [4] is Rattus norvegicus. In words: Narcotic antagonist activity in rat assessed as dose required for 50% antagonist activity at 10 mg/kg, sc co-treated with meperidine. The format is functional, organism-based. Set-up: dose 10 mg/kg.
The subject of data set [5] is Rattus norvegicus. The experiment in a line: Narcotic antagonist activity in rat assessed as dose required for 50% antagonist activity at 80 mg/kg, sc co-treated with meperidine. The format is functional, organism-based. Set-up: dose 80 mg/kg.

Each structure is given as a SMILES string. Activity calls are given as the source filed them. The rule behind the calls is not given here.

One may read the ED50 as the dose at which the effect has come halfway, by size or by number of responders. With `CCC1CN(C)C2Cc3ccc(O)cc3[C@@]1(C)C2` (some centres undefined), in data set [1], the ED50 was 20 mg/kg. In addition, the AD50 in data set [2] amounted to 9 mg/kg. Regarding `CC(C)=CCN1CC[C@@]2(C)c3cc(O)ccc3C[C@@H]1[C@@H]2C` (relative stereo), the ED50 in data set [1] was determined as 2.2 mg/kg. In data set [2], the AD50 came to 3.9 mg/kg. Consider `CC1CN(Cc2ccccc2)C2Cc3ccc(O)cc3[C@@]1(C)C2` (some centres undefined), for which, in data set [3], the Activity result is recorded as “Toxic”. Besides, the ED50 in data set [1] is 8.5 mg/kg. In addition, the outcome in data set [4] was inactive.

As for `CN1CC[C@]23c4c5ccc(O)c4O[C@H]2[C@@H](O)C=C[C@H]3[C@H]1C5` [MORPHINE], in data set [1], the ED50 came out at 0.47 mg/kg. Further, the outcome in data set [2] was inactive. In the case of `C[C@H]1C2Cc3ccc(O)cc3[C@@]1(C)CCN2C`, in data set [1], the ED50 was determined as 0.54 mg/kg.

Take `CC(C)=CCN1C[C@@H](C)[C@]2(C)C[C@@H]1Cc1ccc(O)cc12`: the ED50 in data set [1] is 29 mg/kg. Also, the AD50 in data set [2] worked out at 2.8 mg/kg. The like results for `C=CCN1CC(C)[C@]2(CC)CC1Cc1ccc(O)cc12` (some centres undefined) were, in that order, 10 mg/kg and 0.037 mg/kg. The like results for `C[C@H]1C2Cc3ccc(O)cc3[C@@]1(C)CCN2Cc1ccccc1` were, in that order, 23 mg/kg and 1.3 mg/kg.

On to `CC[C@@]12CCN(CC=C(C)C)C(Cc3ccc(O)cc31)[C@@H]2C`, for which, in data set [1], the ED50 was 2.1 mg/kg. Further, in data set [2], the AD50 amounted to 10.9 mg/kg.

Consider `CC[C@@]12CC(Cc3ccc(O)cc31)N(CC=C(C)C)CC2C` (some centres undefined), for which the AD50 in data set [2] was more than 40 mg/kg.

In the case of `CC1CN(C)C2Cc3ccc(O)cc3[C@@]1(C)C2` (some centres undefined), the ED50 in data set [1] turned out to be 2.9 mg/kg. Take `C=CCN1CC[C@]2(CC)c3cc(O)ccc3CC1[C@@H]2C`: the ED50 in data set [1] stood at 0.23 mg/kg. Further, the AD50 in data set [2] turned out to be 0.064 mg/kg. For `CC[C@H]1C2Cc3ccc(O)cc3[C@@]1(C)CCN2C`, in data set [5], the result was inactive. Besides, the ED50 in data set [1] came out at 1.1 mg/kg.
